This is an account of results in US11731943B2, “Therapeutic compounds, compositions and methods of use thereof” (priority 2016, dated 2023).

Experiment [1] addresses isolated recombinant JAK1 kinase domain (Homo sapiens (Human), UniProt P23458). The experiment can be described thus: JAK1 enzyme assay (Caliper LabChip, Ki). It is filed as biochemical. As for the experimental part:
(§1) JAK Enzyme Assays were carried out as follows:
(§2) The activity of the isolated recombinant JAK1 and JAK2 kinase domain was measured by monitoring phosphorylation of a peptide derived from JAK3 (Val-Ala-Leu-Val-Asp-Gly-Tyr-Phe-Arg-Leu-Thr-Thr, fluorescently labeled on the N-terminus with 5-carboxyfluorescein) using the Caliper LabChip® technology (Caliper Life Sciences, Hopkinton, Mass.). […] Reactions were incubated at 22° C. in 384-well polypropylene microtiter plates for 30 minutes and then stopped by addition of 25 μL of an EDTA containing solution (100 mM HEPES buffer (pH 7.2), 0.015% Brij-35, 150 mM EDTA), resulting in a final EDTA concentration of 50 mM. After termination of the kinase reaction, the proportion of phosphorylated product was determined as a fraction of total peptide substrate using the Caliper LabChip® 3000 according to the manufacturer's specifications. Ki values were then determined using the Morrison tight binding model (Morrison, J. F., Biochim. Biophys. Acta. 185:269-296 (1969); William, J. W. and Morrison, J. F., Meth. Enzymol., 63:437-467 (1979)) modified for ATP-competitive inhibition [Ki=Ki,app/(1+[ATP]/Km,app)].

Experiment [2] addresses isolated recombinant JAK2 kinase domain (Homo sapiens (Human), UniProt O60674). The experiment can be described thus: JAK2 enzyme assay (Caliper LabChip, Ki). It is filed as biochemical. The method, then: as §1
as §2, with “([…]” for “(Val-Ala-Leu-Val-Asp-Gly-Tyr-Phe-Arg-Leu-Thr-Thr,”, “specifications.” for “specifications. Ki values were then determined using the Morrison tight binding model (Morrison, J. F., Biochim. Biophys. Acta. 185:269-296 (1969); William, J. W. and Morrison, J. F., Meth. Enzymol., 63:437-467 (1979)) modified for ATP-competitive inhibition [Ki=Ki,app/(1+[ATP]/Km,app)].”

SMILES strings stand for the structures. Where two headings read alike, the source gives them in different places.

isolated recombinant JAK1 kinase domain, sequence (P23458 875-1153): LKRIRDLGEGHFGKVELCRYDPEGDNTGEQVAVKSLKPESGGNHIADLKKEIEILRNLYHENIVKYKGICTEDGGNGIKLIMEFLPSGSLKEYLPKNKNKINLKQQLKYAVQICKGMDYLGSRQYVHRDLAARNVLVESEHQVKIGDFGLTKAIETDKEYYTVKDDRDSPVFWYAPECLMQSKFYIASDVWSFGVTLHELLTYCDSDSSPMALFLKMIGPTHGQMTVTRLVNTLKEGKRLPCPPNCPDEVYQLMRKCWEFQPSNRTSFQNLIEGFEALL
isolated recombinant JAK2 kinase domain, sequence (O60674 849-1124): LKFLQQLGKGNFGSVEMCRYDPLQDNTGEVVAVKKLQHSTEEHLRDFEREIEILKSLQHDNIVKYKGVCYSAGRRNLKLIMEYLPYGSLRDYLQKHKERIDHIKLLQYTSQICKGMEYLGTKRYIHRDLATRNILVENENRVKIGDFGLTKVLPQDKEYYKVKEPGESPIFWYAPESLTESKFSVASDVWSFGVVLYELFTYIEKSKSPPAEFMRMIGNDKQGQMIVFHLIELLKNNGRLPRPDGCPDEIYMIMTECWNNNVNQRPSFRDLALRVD

In the case of `N#CCC1(n2cc(C(N)=O)c(NC(=O)C3CC3)n2)CCN(Cc2ccc3nc[nH]c3c2)CC1` [Example 73], the Ki stood at 57.3 nM in experiment [1] (read-out: JAK1 Ki) and 272 nM in experiment [2].

As to `N#CC[C@]1(n2cc(C(N)=O)c(NC(=O)C3CC3)n2)CC[C@H](NCc2ccccc2)CC1` [Example 109], the Ki in experiment [1] is over 562 nM; in experiment [2] it was over 319 nM.

On to `N#CCC1(n2cc(C(N)=O)c(NC(=O)C3CC3)n2)CCN(Cc2ccc3c(c2)CSC3)CC1` [Example 91], for which the Ki in experiment [1] (read-out: JAK1 Ki) stood at 8.3 nM; in experiment [2], 173 nM.

As for `N#CC[C@]1(n2cc(C(N)=O)c(NC(=O)C3CC3)n2)CCN(Cc2ccccc2)C[C@H]1F` [Example 165], the values for the Ki in experiment [1] (read-out: JAK1 Ki) and in experiment [2] were 27.1 nM and 211 nM, respectively.

On to `N#CC[C@]1(n2cc(C(N)=O)c(NC(=O)C3CC3)n2)CC[C@H](NCc2ccccc2F)CC1` [Example 111], for which the Ki in experiment [1] came to 9.5 nM; in experiment [2], 87.3 nM.

Regarding `CS(=O)(=O)Nc1ccccc1CN1CCC(CC#N)(n2cc(C(N)=O)c(NC(=O)C3CC3)n2)CC1` [Example 44], the results for the Ki in experiment [1] (read-out: JAK1 Ki) and in experiment [2] were 27.6 nM and 174 nM, respectively.

Regarding `CN[C@H]1CC[C@](CC#N)(n2cc(C(N)=O)c(NC(=O)C3CC3)n2)CC1` [Example 99], the Ki is 92.2 nM in experiment [1] and over 319 nM in experiment [2].

Consider `CNC(=O)Nc1cn(C2(CC#N)CCN(CC(F)(F)F)CC2)nc1C(N)=O` [Example 3, 1-(4-(Cyanomethyl)-1-(2,2,2-trifluoroethyl)piperidin-4-yl)-4-(3-methylureido)-1H-pyrazole-3-carboxamide], for which the values for the Ki in experiment [1] (read-out: JAK1 Ki) and in experiment [2] were 6.4 nM and 15.7 nM, respectively.

Turning to `N#CCC1(n2cc(C(N)=O)c(NC(=O)C3CC3)n2)CCN(Cc2cnn(-c3ccccc3)c2)CC1` [Example 90], the figures for the Ki in experiment [1] (read-out: JAK1 Ki) and in experiment [2] were 7.2 nM and 133 nM, respectively.

Take `N#CC[C@]1(n2cc(C(N)=O)c(NC(=O)C3CC3)n2)CC[C@@H](NCc2ccc(C#N)cc2)CC1` [Example 122]: the Ki in experiment [1] was 562 nM; in experiment [2], over 319 nM.

As to `COC(=O)Nc1nn(C2(CC#N)CCN(CC(F)(F)F)CC2)cc1C(N)=O` [Example 4, Methyl (4-carbamoyl-1-(4-(cyanomethyl)-1-(2,2,2-trifluoroethyl)piperidin-4-yl)-1H-pyrazol-3-yl)carbamate], the Ki in experiment [1] (read-out: JAK1 Ki) is 8.2 nM; in experiment [2], 34.5 nM.

For the molecule `CC1(C)CN([C@H]2CC[C@](CC#N)(n3cc(C(N)=O)c(NC(=O)C4CC4)n3)CC2)C1` [Example 105], the Ki in experiment [1] is over 562 nM; in experiment [2] it was over 319 nM.

For `N#CCC1(n2cc(C(N)=O)c(NC(=O)C3CC3)n2)CCN(Cc2cccc(Br)c2)CC1` [Example 51], the Ki in experiment [1] (read-out: JAK1 Ki) is 6.5 nM; in experiment [2] it was 53.7 nM.

Regarding `N#CC[C@]1(n2cc(C(N)=O)c(NC(=O)C3CC3)n2)CC[C@H](NC2CCC(F)(F)CC2)CC1` [Example 174, 1-[1-(cyanomethyl)-4-[(4,4-difluorocyclohexyl)amino]cyclohexyl]-3-(cyclopropanecarbonylamino) pyrazole-4-carboxamide], the Ki is over 562 nM in experiment [1] and over 319 nM in experiment [2].

Turning to `CC(C)OC1(C(F)(F)F)CN([C@H]2CC[C@](CC#N)(n3cc(C(N)=O)c(NC(=O)C4CC4)n3)CC2)C1` [Example 136], the figures for the Ki in experiment [1] (read-out: JAK1 Ki) and in experiment [2] were 463 nM and over 319 nM, respectively.

`CC(c1ccccc1)N1CCC(CC#N)(n2cc(C(N)=O)c(NC(=O)C3CC3)n2)CC1` (centres unmarked) [Example 22]: the Ki in experiment [1] (read-out: JAK1 Ki) is 37.4 nM; in experiment [2] it was 151 nM.

Regarding `N#CCC1(n2cc(C(N)=O)c(NC(=O)C3CC3)n2)CCN(Cc2ccccc2I)CC1` [Example 53], the results for the Ki in experiment [1] (read-out: JAK1 Ki) and in experiment [2] were 7.1 nM and 101 nM, respectively.

Regarding `CN(C)C(=O)c1ccccc1-c1ccc(CN2CCC(CC#N)(n3cc(C(N)=O)c(NC(=O)C4CC4)n3)CC2)cc1` [Example 144, 1-[4-(cyanomethyl)-1-[[4-[2-(dimethylcarbamoyl)phenyl]phenyl]methyl]-4-piperidyl]-3-(cyclopropanecarbonylamino) pyrazole-4-carboxamide], the inhibitory constant (Ki) came out at 8.8 nM in experiment [1] (read-out: JAK1 Ki) and 63.5 nM in experiment [2].

Regarding `N#CCC1(n2cc(C(N)=O)c(NC(=O)C3CC3)n2)CCN(Cc2ccc3cc[nH]c3c2)CC1` [Example 72], the Ki in experiment [1] (read-out: JAK1 Ki) was found to be 8.3 nM; in experiment [2], 31.3 nM.

As for `N#CCC1(n2cc(C(N)=O)c(NC(=O)C3CC3)n2)CCN(Cc2cccc(OC(F)(F)F)c2)CC1` [Example 48], the inhibition constant (Ki) in experiment [1] (read-out: JAK1 Ki) was found to be 27.7 nM; in experiment [2] it was 189 nM.

As for `N#CC[C@]1(n2cc(C(N)=O)c(NC(=O)C3CC3)n2)CC[C@H](N2CC(O)(C(F)(F)F)C2)CC1` [Example 138, 1-[1-(cyanomethyl)-4-[3-hydroxy-3-(trifluoromethyl)azetidin-1-yl]cyclohexyl]-3-(cyclopropanecarbonylamino) pyrazole-4-carboxamide], the Ki in experiment [1] (read-out: JAK1 Ki) was over 562 nM; in experiment [2], over 319 nM.

As to `N#CCC1(n2cc(C(N)=O)c(NC(=O)C3CC3(F)F)n2)CCN(CC(F)(F)F)CC1` (centres unmarked) [Example 26], the results for the Ki in experiment [1] (read-out: JAK1 Ki) and in experiment [2] were 11.5 nM and 203 nM, respectively.

For `CS(=O)(=O)Nc1ccc(CN2CCC(CC#N)(n3cc(C(N)=O)c(NC(=O)C4CC4)n3)CC2)cc1` [Example 46], the results for the Ki in experiment [1] (read-out: JAK1 Ki) and in experiment [2] were 41.4 nM and 284 nM, respectively.

Regarding `COC1CN([C@H]2CC[C@](CC#N)(n3cc(C(N)=O)c(NC(=O)C4CC4)n3)CC2)C1` [Example 101], the Ki in experiment [1] was over 562 nM; in experiment [2], over 319 nM.

As for `N#CCC1(n2cc(C(N)=O)c(NC(=O)[C@H]3C[C@@H]3C3CC3)n2)CCN(CC(F)(F)F)CC1` (stereo in doubt) [Example 177, 1-[4-(cyanomethyl)-1-(2,2,2-trifluoroethyl)-4-piperidyl]-3-[(2-cyclopropylcyclopropanecarbonyl)amino]pyrazole-4-carboxamide], the Ki in experiment [1] (read-out: JAK1 Ki) stood at 18.7 nM; in experiment [2] it was 226 nM.

On to `N#CCC1(n2cc(C(N)=O)c(NC(=O)C3CC3)n2)CCN(CC(O)c2ccccc2)CC1` (centres unmarked) [Example 20, 1-(4-(cyanomethyl)-1-(2-hydroxy-2-phenylethyl)piperidin-4-yl)-3-(cyclopropanecarboxamido)-1H-pyrazole-4-carboxamide], for which the inhibitory constant (Ki) in experiment [1] is 447 nM; in experiment [2] it was over 319 nM.

As to `N#CC[C@]1(n2cc(C(N)=O)c(NC(=O)C3CC3)n2)CC[C@@H](N2CC(C(F)(F)F)C2)CC1` (single isomer, unassigned) [Example 7], the Ki was over 562 nM in experiment [1] (read-out: JAK1 Ki) and over 319 nM in experiment [2].

For the molecule `N#CC[C@]1(n2cc(C(N)=O)c(NC(=O)C3CC3)n2)CC[C@@H](NC2CC(F)(F)C2)CC1` [Example 173, 1-[1-(cyanomethyl)-4-[(3,3-difluorocyclobutyl)amino]cyclohexyl]-3-(cyclopropanecarbonylamino) pyrazole-4-carboxamide], the results for the inhibitory constant (Ki) in experiment [1] and in experiment [2] were 8.7 nM and 71.3 nM, respectively.

With `CC(=O)Nc1nn(C2(CC#N)CCN(CC(F)(F)F)CC2)cc1C(N)=O` [Example 24], the Ki came out at 35.6 nM in experiment [1] (read-out: JAK1 Ki) and 76.7 nM in experiment [2].

Consider `N#CCC1(n2cc(C(N)=O)c(NC(=O)C3CC3)n2)CCN(Cc2ccc(-c3cccnc3)cc2)CC1` [Example 158], for which the Ki in experiment [1] (read-out: JAK1 Ki) was 8 nM; in experiment [2], 39.4 nM.

In the case of `N#CC[C@]1(n2cc(C(N)=O)c(NC(=O)C3CC3)n2)CC[C@@H](NCc2ccccc2Cl)CC1` [Example 118], the values for the Ki in experiment [1] and in experiment [2] were over 562 nM and over 319 nM, respectively.

As to `N#CCC1(n2cc(C(N)=O)c(NC(=O)C3CC3)n2)CCN(Cc2cccc(C(F)(F)F)c2)CC1` [Example 62], the values for the Ki in experiment [1] (read-out: JAK1 Ki) and in experiment [2] were 27.6 nM and 285 nM, respectively.

`N#CCC1(n2cc(C(N)=O)c(NC(=O)[C@@H]3C[C@@H]3F)n2)CCN(CC(F)(F)F)CC1` [Example 28]: the Ki in experiment [1] (read-out: JAK1 Ki) was found to be 12.1 nM; in experiment [2] it was 30.9 nM.

Consider `N#CCC1(n2cc(C(N)=O)c(NC(=O)C3CC3)n2)CCN(Cc2ccc(-n3cncn3)cc2)CC1` [Example 86], for which the Ki was 99.7 nM in experiment [1] (read-out: JAK1 Ki) and over 319 nM in experiment [2].

On to `N#CCC1(n2cc(C(N)=O)c(NC(=O)C3CC3)n2)CCN(C(CO)c2ccccc2)CC1` (centres unmarked) [Example 19, 1-(4-(Cyanomethyl)-1-(2-hydroxy-1-phenylethyl)piperidin-4-yl)-3-(cyclopropanecarboxamido)-1H-pyrazole-4-carboxamide], for which the Ki in experiment [1] was 69.3 nM; in experiment [2], over 319 nM.

As for `N#CCC1(n2cc(C(N)=O)c(NC(=O)C3CC3)n2)CCN(Cc2cccc(CN)c2)CC1` [Example 97], the Ki turned out to be 41 nM in experiment [1] (read-out: JAK1 Ki) and 163 nM in experiment [2].

As to `N#CCC1(n2cc(C(N)=O)c(NC(=O)C3CC3)n2)CCN(CCc2ccccc2)CC1` [Example 183, 1-[4-(cyanomethyl)-1-(2-phenylethyl)-4-piperidyl]-3-(cyclopropanecarbonylamino) pyrazole-4-carboxamide], the Ki in experiment [1] (read-out: JAK1 Ki) was 88.3 nM; in experiment [2] it was over 319 nM.

Broadly, the Ki is the dissociation constant of the complex between target and ligand, obtained from inhibition or displacement.
